In article PMC5054363 (Scientific Reports, 2016):
*1 amine or outer side, *2 acyl side, *3 side chain or, on linkers, in order; H or OH if unused. Where a SMILES comes first, the peptide text is derived from it. Bridges are numbered along the chain shown (N, C = ends). [ ]: non-standard residue; d: D form. The star is where a group is joined. X1 = CC[C@H](C)[C@@H](N[*:1])[C@@H](O)CC(=O)O[C@H](C(=O)[C@H](C)C(=O)[*:2])C(C)C; NMeY = CN[C@@H](Cc1ccc(O)cc1)C(=O)O; dNMeL = CN[C@H](CC(C)C)C(=O)O; Pyruvoyl = CC(=O)C(=O)*

Tested on: CHRM4 (M4 muscarinic acetylcholine receptor)
Test: PathHunter acetylcholine-mediated CHRM4 activation
Type: cell-based
Conditions: CHO-transfected cell line, preliminary, data not shown
From the text: For example, it is known that eEF1A is able to directly increase the activity of sphingosine kinase-1 (SK1), an effect that is related to oncogenesis. […] The hijacking of eEF1A with the consequent reduction of SK1 activity has already been described as a biological mechanism in dengue virus type-2 infected cells. Another example is the specific binding of eEF1A2 to the i3 loop of M4, but not M1, muscarinic acetylcholine receptor[40]. This direct interaction with M4 regulates its cell membrane density and activity. […] This is due to a specific interaction of eEF1A with aberrant polypeptides named defective ribosomal products (DRiPs) that are ligated to multi-ubiquitin chains following translation damage; eEF1A also plays a role in sensing DRiP accumulation when the proteasome is inhibited.

CC[C@H](C)[C@H]1NC(=O)[C@@H](NC(=O)[C@@H](CC(C)C)N(C)C(=O)[C@@H]2CCCN2C(=O)C(C)=O)[C@@H](C)OC(=O)[C@H](Cc2ccc(OC)cc2)N(C)C(=O)[C@@H]2CCCN2C(=O)[C@H](CC(C)C)NC(=O)[C@@H](C)C(=O)[C@H](C(C)C)OC(=O)C[C@@H]1O [plitidepsin, Plitidepsin] (Pyruvoyl-P[dNMeL]T[X1]LP[NMeY](Me); ester 3-C (inferred))
decrease of acetylcholine-mediated CHRM4 activation: 55%
